The source of these data is PMC11607896 (Biotechnology for Biofuels and Bioproducts, 2024).

Common to all, as to format: biochemical
Experiment [1] concerns the target T1, PcCel7C (Phanerodontia chrysosporium, UniProt P13860).
T1 sequence (P13860 19-516): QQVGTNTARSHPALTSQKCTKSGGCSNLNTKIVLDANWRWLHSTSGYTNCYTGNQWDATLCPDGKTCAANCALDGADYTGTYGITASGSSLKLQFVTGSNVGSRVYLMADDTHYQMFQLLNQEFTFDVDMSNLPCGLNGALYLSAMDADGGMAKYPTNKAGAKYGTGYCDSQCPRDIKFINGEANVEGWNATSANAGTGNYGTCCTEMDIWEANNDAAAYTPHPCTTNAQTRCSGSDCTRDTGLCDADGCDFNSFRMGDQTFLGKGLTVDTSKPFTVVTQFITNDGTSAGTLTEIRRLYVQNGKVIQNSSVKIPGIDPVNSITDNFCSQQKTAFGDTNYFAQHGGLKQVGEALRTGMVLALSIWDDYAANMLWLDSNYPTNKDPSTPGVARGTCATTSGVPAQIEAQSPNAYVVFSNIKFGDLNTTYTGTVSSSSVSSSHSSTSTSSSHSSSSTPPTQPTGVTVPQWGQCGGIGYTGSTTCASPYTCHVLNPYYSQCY
Put plainly: inhibition of pNPC hydrolysis. The following applies: 1 mM pNPC, 1.45 µM enzyme, pH 5.0, 50 °C, 20 min; product inhibition.

Experiment [2] has as its target T2, PcCel7D (Phanerodontia chrysosporium, UniProt Q7LIJ0).
T2 sequence (Q7LIJ0 19-510): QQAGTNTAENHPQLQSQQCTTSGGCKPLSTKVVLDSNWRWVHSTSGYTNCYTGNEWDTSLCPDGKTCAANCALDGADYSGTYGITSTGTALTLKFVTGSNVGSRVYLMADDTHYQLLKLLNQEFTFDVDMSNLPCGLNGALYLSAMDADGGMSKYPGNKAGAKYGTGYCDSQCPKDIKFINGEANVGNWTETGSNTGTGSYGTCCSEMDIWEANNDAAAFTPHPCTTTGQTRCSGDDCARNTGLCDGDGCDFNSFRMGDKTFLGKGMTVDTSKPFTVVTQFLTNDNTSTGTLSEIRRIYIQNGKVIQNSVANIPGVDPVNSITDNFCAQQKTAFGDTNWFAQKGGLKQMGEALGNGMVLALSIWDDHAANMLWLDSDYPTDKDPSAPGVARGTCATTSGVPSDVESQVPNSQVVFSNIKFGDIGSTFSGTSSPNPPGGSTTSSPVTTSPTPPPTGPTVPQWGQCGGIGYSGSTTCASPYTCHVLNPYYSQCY
The experiment in a line: inhibition of pNPC hydrolysis. The note with it: 1 mM pNPC, 1.45 µM enzyme, pH 5.0, 50 °C, 20 min; product inhibition.

Experiment [3] concerns the target T3, TrCel7A (Trichoderma reesei, UniProt P62694).
T3 sequence (P62694 18-513): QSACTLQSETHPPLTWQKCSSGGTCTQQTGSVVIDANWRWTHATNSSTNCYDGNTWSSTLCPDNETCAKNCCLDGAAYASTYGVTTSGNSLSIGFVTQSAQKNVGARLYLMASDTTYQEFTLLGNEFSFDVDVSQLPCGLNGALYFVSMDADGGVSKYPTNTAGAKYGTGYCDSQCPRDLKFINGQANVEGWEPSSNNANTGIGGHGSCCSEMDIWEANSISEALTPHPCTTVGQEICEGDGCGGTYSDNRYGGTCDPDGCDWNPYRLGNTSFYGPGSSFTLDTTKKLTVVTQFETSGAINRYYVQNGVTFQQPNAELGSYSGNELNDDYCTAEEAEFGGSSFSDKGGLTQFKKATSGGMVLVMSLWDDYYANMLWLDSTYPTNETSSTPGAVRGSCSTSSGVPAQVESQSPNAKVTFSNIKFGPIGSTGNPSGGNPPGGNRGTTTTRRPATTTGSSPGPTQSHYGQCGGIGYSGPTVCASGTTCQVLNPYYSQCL
The experiment in a line: inhibition of pNPC hydrolysis. The following applies: 1 mM pNPC, 1.45 µM enzyme, pH 5.0, 50 °C, 20 min; product inhibition.

Experiment [4] deals with T1, PcCel7C. The experiment in a line: PASC hydrolysis, reducing sugar. The following applies: PASC 10 g/L, 0.2 µM enzyme, pH 5.0, 50 °C, 60 min; may be deactivation.
Experiment [5] has as its target T2, PcCel7D. The experiment in a line: PASC hydrolysis, reducing sugar. The note with it: PASC 10 g/L, 0.2 µM enzyme, pH 5.0, 50 °C, 60 min; may be deactivation.
In experiment [6] the target is T1, PcCel7C. The experiment in a line: PASC hydrolysis, reducing sugar. The note with it: PASC 10 g/L, 0.2 µM enzyme, pH 5.0, 50 °C, 60 min; may be deactivation. This is another data set of the same source.
In experiment [7] the target is T2, PcCel7D. The experiment in a line: PASC hydrolysis, reducing sugar. The note with it: PASC 10 g/L, 0.2 µM enzyme, pH 5.0, 50 °C, 60 min; may be deactivation. The source holds these as a separate data set.
For experiment [8], the target named is T2, PcCel7D. The experiment in a line: inhibition of pNPC hydrolysis. The following applies: 1 mM pNPC, 1.45 µM enzyme, pH 5.0, 50 °C, 20 min.
The target in experiment [9] is T3, TrCel7A. Put plainly: inhibition of pNPC hydrolysis. The following applies: 1 mM pNPC, 1.45 µM enzyme, pH 5.0, 50 °C, 20 min.
Experiment [10] addresses T1, PcCel7C. Put plainly: inhibition of pNPC hydrolysis. The note with it: 1 mM pNPC, 1.45 µM enzyme, pH 5.0, 50 °C, 20 min.

Regarding `OC[C@H]1O[C@@H](O[C@H]2[C@H](O)[C@@H](O)C(O)O[C@@H]2CO)[C@H](O)[C@@H](O)[C@@H]1O` (stereo partly shown) [cellobiose], the “% reduction in activity at 1 mM” value in experiment [1], in experiment [2] and in experiment [3] was ~ 50% each time.
In the case of `O=C(O)c1c(O)cccc1O` [compound 12, 2,6-dihydroxybenzoic acid], the “% reduction in activity at 30 mM” value in [4] stood at 87%; in experiment [5], 67%.
As to `O=C(O)c1ccc(O)cc1` [compound 3, 4-hydroxybenzoic acid], the “% decrease in activity at 30 mM” value in experiment [6] is reported as “the activity of PcCBHs exhibited susceptibility to the same LRCs, following a comparable pattern”; in [7], “the activity of PcCBHs exhibited susceptibility to the same LRCs, following a comparable pattern”.
As for `OC[C@H]1OC(O)[C@H](O)[C@@H](O)[C@@H]1O` (stereo partly shown) [glucose], the “% loss of activity at 1.5 M” value in [8] is reported as 67%; in experiment [9] it was 30%; in experiment [10], 67%.
